Source: ChEMBL document CHEMBL3351906, “Bioactive triterpenoid saponins and phenolic compounds against glioma cells” (Bioorg Med Chem Lett, 2014)

What was measured:
U-251 = assay: Inhibition of cell proliferation of human U251 cells assessed as cell viability at 100 uM after 72 hrs by sulforhodamine B assay; assay type: functional; conditions: U-251, 72 h, read-out: Activity
C6 = assay: Inhibition of cell proliferation of rat C6 cells assessed as cell viability at 100 uM after 72 hrs by sulforhodamine B assay; assay type: functional; conditions: C6, 72 h, read-out: Activity

| Compound | viability at 100 µM (U-251) | viability at 100 µM (C6) |
| --- | --- | --- |
| CC(C)=CCC[C@@](C)(O)[C@H]1CC[C@]2(C)[C@@H]1[C@H](O)C[C@@H]1[C@@]3(C)CC[C@H](O[C@@H]4O[C@H](CO)[C@@H](O)[C@H](O)[C@H]4O[C@@H]4O[C@H](CO)[C@@H](O)[C@H](O)[C@H]4O)C(C)(C)[C@@H]3CC[C@]12C | 77.5% | 97.2% |
| CC(C)=CCC[C@](C)(O[C@@H]1O[C@H](CO[C@@H]2O[C@@H](CO)[C@H](O)[C@H]2O)[C@@H](O)[C@H](O)[C@H]1O)[C@H]1CC[C@]2(C)[C@@H]1[C@H](O)C[C@@H]1[C@@]3(C)CC[C@H](O[C@@H]4O[C@H](CO)[C@@H](O)[C@H](O)[C@H]4O[C@@H]4O[C@H](CO)[C@@H](O)[C@H](O)[C@H]4O)C(C)(C)[C@@H]3CC[C@]12C [GINSENOSIDE RC] | 87.7% | 79% |
| CC(C)=CCC[C@](C)(O[C@@H]1O[C@H](CO[C@H]2O[C@H](CO)[C@@H](O)[C@@H]2O)[C@@H](O)[C@H](O)[C@H]1O)[C@H]1CC[C@]2(C)[C@@H]1[C@H](O)C[C@@H]1[C@@]3(C)CC[C@H](O)C(C)(C)[C@@H]3[C@@H](O)C[C@]12C [GINSENOSIDE F5] | 102% | 92.8% |
| CC(C)=CCC[C@](C)(O[C@@H]1O[C@H](CO[C@@H]2O[C@H](CO)[C@@H](O)[C@H](O)[C@H]2O)[C@@H](O)[C@H](O)[C@H]1O)[C@H]1CC[C@]2(C)[C@@H]1[C@H](O)C[C@@H]1[C@@]3(C)CC[C@H](O[C@@H]4O[C@H](CO)[C@@H](O)[C@H](O)[C@H]4O)C(C)(C)[C@@H]3CC[C@]12C [GYPENOSIDE XVII] | 86.5% | 80.8% |
| CC(C)=CCC[C@](C)(O[C@@H]1O[C@H](CO)[C@@H](O)[C@H](O)[C@H]1O)[C@H]1CC[C@]2(C)[C@@H]1[C@H](O)C[C@@H]1[C@@]3(C)CC[C@H](O[C@@H]4O[C@H](CO)[C@@H](O)[C@H](O)[C@H]4O[C@@H]4O[C@H](CO)[C@@H](O)[C@H](O)[C@H]4O)C(C)(C)[C@@H]3CC[C@]12C [GINSENOSIDE RD] | 78.4% | 102% |
| CC(C)=CCC[C@](C)(O[C@@H]1O[C@H](CO)[C@@H](O)[C@H](O)[C@H]1O)[C@H]1CC[C@]2(C)[C@@H]1[C@H](O)C[C@@H]1[C@@]3(C)CC[C@H](O[C@@H]4O[C@H](CO)[C@@H](O)[C@H](O)[C@H]4O)C(C)(C)[C@@H]3[C@@H](O)C[C@]12C | 92.5% | 65.6% |
| CC(C)=CCC[C@](C)(O[C@@H]1O[C@H](CO[C@@H]2OC[C@H](O)[C@H](O)[C@H]2O)[C@@H](O)[C@H](O)[C@H]1O)[C@H]1CC[C@]2(C)[C@@H]1[C@H](O)C[C@@H]1[C@@]3(C)CC[C@H](O[C@@H]4O[C@H](CO)[C@@H](O)[C@H](O)[C@H]4O[C@@H]4O[C@H](CO)[C@@H](O)[C@H](O)[C@H]4O)C(C)(C)[C@@H]3CC[C@]12C [GINSENOSIDE RB2] | 77.5% | 80.9% |
| O=C(/C=C/c1ccc(O)c(O)c1)O[C@H](Cc1ccc(O)c(O)c1)C(=O)O [ROSMARINIC ACID] | 70.8% | 54.5% |
| COc1c(O)ccc(O)c1-c1cc(=O)c2c(O)cc(O)c(OC)c2o1 | 87.5% | 57.7% |
| CC1(C)CC[C@]2(C(=O)O)CC[C@]3(C)C(=CC[C@@H]4[C@@]5(C)CC[C@H](O)C(C)(C)[C@@H]5CC[C@]43C)[C@@H]2C1 [OLEANOLIC_ACID] | 67.8% | 59.2% |
| C/C=C(/C)C(=O)O[C@H]1[C@H](O)[C@]2(CO)[C@H](O)C[C@]3(C)C(=CC[C@@H]4[C@@]5(C)CC[C@H](O[C@@H]6O[C@H](C(=O)O)[C@@H](O[C@@H]7O[C@H](CO)[C@@H](O)[C@H](O)[C@H]7O)[C@H](O)[C@H]6O[C@@H]6O[C@H](CO)[C@@H](O)[C@H](O)[C@H]6O)[C@](C)(CO)[C@@H]5CC[C@]43C)[C@@H]2CC1(C)C | 94.6% | 90.7% |
| CC(C)=CCC[C@](C)(O)[C@H]1CC[C@]2(C)[C@@H]1[C@H](O)C[C@@H]1[C@@]3(C)CC[C@H](O)C(C)(C)[C@@H]3[C@@H](O[C@@H]3O[C@H](CO)[C@@H](O)[C@H](O)[C@H]3O[C@@H]3O[C@@H](C)[C@H](O)[C@@H](O)[C@H]3O)C[C@]12C [GINSENOSIDE RG2] | 103% | 96.5% |
| CC(C)=CCC[C@](C)(O[C@@H]1O[C@H](CO[C@@H]2OC[C@H](O)[C@H](O)[C@H]2O)[C@@H](O)[C@H](O)[C@H]1O)[C@H]1CC[C@]2(C)[C@@H]1[C@H](O)C[C@@H]1[C@@]3(C)CC[C@H](O)C(C)(C)[C@@H]3[C@@H](O)C[C@]12C [GINSENOSIDE F3] | 104% | 93.6% |
| CC(C)=CCC[C@](C)(O[C@@H]1O[C@H](CO)[C@@H](O)[C@H](O)[C@H]1O)[C@H]1CC[C@]2(C)[C@@H]1[C@H](O)C[C@@H]1[C@@]3(C)CC[C@H](O[C@@H]4O[C@H](CO)[C@@H](O)[C@H](O)[C@H]4O[C@@H]4O[C@H](CO)[C@@H](O)[C@H](O)[C@H]4O)C(C)(C)[C@@H]3[C@@H](O)C[C@]12C | 94.5% | 97.5% |
| O=C(/C=C/c1ccc(O)c(O)c1)O[C@@H]1C[C@](O)(C(=O)O)C[C@@H](O)[C@H]1O [CHLOROGENIC ACID] | 56.6% | 77.4% |
| C[C@@H]1O[C@@H](OC[C@H]2O[C@@H](Oc3c(-c4ccc(O)c(O)c4)oc4cc(O)cc(O)c4c3=O)[C@H](O)[C@@H](O)[C@@H]2O)[C@H](O)[C@H](O)[C@H]1O [RUTIN] | 61.5% | 62.1% |
| CC(C)=CCC[C@](C)(O)[C@H]1CC[C@]2(C)[C@@H]1[C@H](O)C[C@@H]1[C@@]3(C)CC[C@H](O)C(C)(C)[C@@H]3[C@@H](O[C@@H]3O[C@H](CO)[C@@H](O)[C@H](O)[C@H]3O[C@@H]3OC[C@@H](O)[C@H](O)[C@H]3O)C[C@]12C | 108% | 59.3% |
| CC(C)=CCC[C@](C)(O[C@@H]1O[C@H](CO[C@@H]2O[C@H](CO)[C@@H](O)[C@H](O)[C@H]2O)[C@@H](O)[C@H](O)[C@H]1O)[C@H]1CC[C@]2(C)[C@@H]1[C@H](O)C[C@@H]1[C@@]3(C)CC[C@H](O[C@@H]4O[C@H](CO)[C@@H](O)[C@H](O)[C@H]4O[C@@H]4O[C@H](CO)[C@@H](O)[C@H](O)[C@H]4O)C(C)(C)[C@@H]3CC[C@]12C [GINSENOSIDE RB1] | 76.1% | 79% |
| CC(C)=CCC[C@@](C)(O)[C@H]1CC[C@]2(C)[C@@H]1[C@H](O)C[C@@H]1[C@@]3(C)CC[C@H](O)C(C)(C)[C@@H]3[C@@H](O[C@@H]3O[C@H](CO)[C@@H](O)[C@H](O)[C@H]3O[C@@H]3O[C@@H](C)[C@H](O)[C@@H](O)[C@H]3O)C[C@]12C | 99% | 95.5% |
| CC(C)=CCC[C@](C)(O[C@@H]1O[C@H](CO)[C@@H](O)[C@H](O)[C@H]1O)[C@H]1CC[C@]2(C)[C@@H]1[C@H](O)C[C@@H]1[C@@]3(C)CC[C@H](O)C(C)(C)[C@@H]3[C@@H](O)C[C@]12C [GINSENOSIDE F1] | 80.9% | 92% |
| C/C=C/C(=O)OC[C@H]1O[C@@H](O[C@H]2[C@H](O[C@H]3CC[C@]4(C)[C@H]5C[C@@H](O)[C@@H]6[C@@H]([C@](C)(CCC=C(C)C)O[C@@H]7O[C@H](CO[C@@H]8O[C@H](CO)[C@@H](O)[C@H](O)[C@H]8O)[C@@H](O)[C@H](O)[C@H]7O)CC[C@@]6(C)[C@]5(C)CC[C@H]4C3(C)C)O[C@H](CO)[C@@H](O)[C@@H]2O)[C@H](O)[C@@H](O)[C@@H]1O | 97.2% | 99.4% |
| O=C(/C=C/c1ccc(O)c(O)c1)O[C@H]1[C@H](O)C[C@](O)(C(=O)O)C[C@H]1OC(=O)/C=C/c1ccc(O)c(O)c1 | 119% | 46% |
| CC(C)=CCC[C@](C)(O)[C@H]1CC[C@]2(C)[C@@H]1[C@H](O)C[C@@H]1[C@@]3(C)CC[C@H](O[C@@H]4O[C@H](CO)[C@@H](O)[C@H](O)[C@H]4O[C@@H]4O[C@H](CO)[C@@H](O)[C@H](O)[C@H]4O)C(C)(C)[C@@H]3CC[C@]12C | 99.1% | 53.1% |
| O=C(/C=C/c1ccc(O)c(O)c1)O[C@H]1[C@H](O)C[C@@](O)(C(=O)O)C[C@H]1O | 52.8% | 133% |
| O=C(O)[C@H]1O[C@@H](Oc2cc3oc(-c4ccccc4)cc(=O)c3c(O)c2O)[C@H](O)[C@@H](O)[C@@H]1O [BAICALIN] | 91.8% | 80.4% |
| CC(C)=CCC[C@](C)(O[C@@H]1O[C@H](CO)[C@@H](O)[C@H](O)[C@H]1O)[C@H]1CC[C@]2(C)[C@@H]1[C@H](O)C[C@@H]1[C@@]3(C)CC[C@H](O[C@@H]4O[C@H](CO)[C@@H](O)[C@H](O)[C@H]4O)C(C)(C)[C@@H]3CC[C@]12C [GINSENOSIDE F2] | 64.6% | 117% |
| CC(C)=CCC[C@](C)(O[C@@H]1O[C@H](CO[C@@H]2OC[C@@H](O)[C@H](O)[C@H]2O)[C@@H](O)[C@H](O)[C@H]1O)[C@H]1CC[C@]2(C)[C@@H]1[C@H](O)C[C@@H]1[C@@]3(C)CC[C@H](O[C@@H]4O[C@H](CO)[C@@H](O)[C@H](O)[C@H]4O[C@@H]4O[C@H](CO)[C@@H](O)[C@H](O)[C@H]4O)C(C)(C)[C@@H]3CC[C@]12C [GINSENOSIDE RB3] | 95.1% | 57.8% |
| CC1(C)CC[C@]2(C(=O)O)[C@H](O)C[C@]3(C)C(=CC[C@@H]4[C@@]5(C)CC[C@H](O)C(C)(C)[C@@H]5CC[C@]43C)[C@H]2C1 [ECHINOCYSTIC ACID] | 33.7% | 52.3% |
